Test results: paper PMC12302228 (RSC Medicinal Chemistry, 2025)
Converted amounts (≈) assume the structure as drawn. Like-named read-outs stand apart in the source and are kept apart here.

Assays:
[1] = tested on: HT-29; assay: Antiproliferative activity, SRB assay; type: cell-based, human; conditions: mean ± SEM
[2] = tested on: THP-1; assay: Antiproliferative activity, MTT assay; type: cell-based, human; conditions: mean ± SEM
[3] = tested on: M21; assay: Antiproliferative activity, SRB assay; type: cell-based, human; conditions: mean ± SEM
[4] = physchem; conditions: ultrapure water, 37 °C, kinetic from dmso stock
[5] = tested on: MCF7; assay: Antiproliferative activity, SRB assay; type: cell-based, human; conditions: mean ± SEM
[6] = tested on: MOLM-13; assay: Antiproliferative activity, MTT assay; type: cell-based, human; conditions: read-out: IC50 MOLM-13; 48 h of treatment; mean ± SEM
[7] = tested on: HL-60; assay: Antiproliferative activity, MTT assay; type: cell-based, human; conditions: mean ± SEM
[8] = tested on: HT-1080; assay: Antiproliferative activity, SRB assay; type: cell-based, human; conditions: read-out: IC50 HT-1080; 48 h of treatment; mean ± SEM
[9] = read-out: IC50 HT-29, 48 h of treatment
[10] = read-out: IC50 THP-1, 48 h of treatment
[11] = read-out: IC50 M21, 48 h of treatment
[12] = read-out: IC50 MCF7, 48 h of treatment
[13] = read-out: IC50 HL-60, 48 h of treatment
[14] = Homo sapiens, HT-29, 48 h, read-out: IC50 HT-29, 48 h of treatment
[15] = Homo sapiens, THP-1, 48 h, read-out: IC50 THP-1, 48 h of treatment
[16] = Homo sapiens, M21, 48 h, read-out: IC50 M21, 48 h of treatment
[17] = Homo sapiens, MCF7, 48 h, read-out: IC50 MCF7, 48 h of treatment
[18] = Homo sapiens, HL-60, 48 h, read-out: IC50 HL-60, 48 h of treatment

Row | IC50 [1, 9] | IC50 [2, 10] | solubility at 24 h [4] | IC50 [5, 12] | IC50 [6] | IC50 [7, 13] | IC50 [8] | IC50 [1, 14] | IC50 [2, 15] | IC50 [5, 17] | IC50 [7, 18] | SMILES | IC50 [3, 11] | IC50 [3, 16]
1 | 45 ± 4 µM | 6 ± 2 µM | 0.122 ± 0.004 mg/mL | 45 ± 4 µM | 3.7 ± 0.5 µM | 80 ± 5 µM | 6.7 ± 0.4 µM |  |  |  |  | CCNC(=O)Nc1ccc(S(=O)(=O)Oc2cnccc2Br)cc1.Cl [Compound 30, 4-Bromopyridin-3-yl 4-(3-ethylureido)benzenesulfonate hydrochloride] | 44 ± 3 µM | 
2 |  |  | 0.12 ± 0.01 mg/mL |  |  |  |  | 28 ± 2 µM | 3.9 ± 0.7 µM | 22 ± 2 µM | 30 ± 10 µM | CCCNC(=O)Nc1ccc(S(=O)(=O)Oc2cccnc2I)cc1.Cl [Compound 24, 2-Iodopyridin-3-yl 4-(3-propylureido)benzenesulfonate hydrochloride] |  | 29 ± 2 µM
3 | 11 ± 1 µM | 2.2 ± 0.3 µM | 0.165 ± 0.003 mg/mL | 19 ± 3 µM | 1.4 ± 0.4 µM | 32 ± 9 µM | 5.3 ± 0.4 µM |  |  |  |  | CCNC(=O)Nc1ccc(S(=O)(=O)Oc2cnccc2I)cc1.Cl [Compound 31, 4-Iodopyridin-3-yl 4-(3-ethylureido)benzenesulfonate hydrochloride] | 11 ± 1 µM | 
4 | 2.3 ± 0.1 µM | 0.9 ± 0.2 µM | 0.154 ± 0.007 mg/mL | 3.8 ± 0.3 µM | 0.7 ± 0.2 µM | 3 ± 1 µM | 1.2 ± 0.2 µM |  |  |  |  | Cl.O=C(NCCCl)Nc1ccc(S(=O)(=O)Oc2cnccc2I)cc1 [Compound 36, 4-Iodopyridin-3-yl 4-(3-(2-chloroethyl)ureido)benzenesulfonate hydrochloride] | 3.5 ± 0.4 µM | 
5 | 10.5 ± 0.5 µM | 2.6 ± 0.9 µM | 0.126 ± 0.005 mg/mL | 14 ± 1 µM | 2.5 ± 0.9 µM | 13 ± 4 µM | 3.3 ± 0.2 µM |  |  |  |  | CC(C)c1ncccc1OS(=O)(=O)c1ccc(NC(=O)NCCCl)cc1.Cl [Compound 29, 2-Isopropylpyridin-3-yl 4-(3-(2-chloroethyl)ureido)benzenesulfonate hydrochloride] | 9.7 ± 0.5 µM | 
6 | 33 ± 1 µM | 4.9 ± 0.3 µM | 0.189 ± 0.005 mg/mL | 16 ± 1 µM | 4.8 ± 0.7 µM | > 50 µM | 5.5 ± 0.4 µM |  |  |  |  | Cl.O=C(NCCCl)Nc1ccc(S(=O)(=O)Oc2cccnc2Br)cc1 [Compound 27, 2-Bromopyridin-3-yl 4-(3-(2-chloroethyl)ureido)benzenesulfonate hydrochloride] | 30 ± 2 µM | 
7 | 21 ± 1 µM | 1.8 ± 0.7 µM | 0.037 ± 0.002 mg/mL | 13 ± 1 µM | 2.4 ± 0.4 µM | 19 ± 4 µM | 3.1 ± 0.2 µM |  |  |  |  | Cl.O=C(NCCCl)Nc1ccc(S(=O)(=O)Oc2cccnc2I)cc1 [Compound 28, 2-Iodopyridin-3-yl 4-(3-(2-chloroethyl)ureido)benzenesulfonate hydrochloride] | 15 ± 1 µM | 
8 | 9.6 ± 0.7 µM | 2.9 ± 0.1 µM | 0.098 ± 0.007 mg/mL | 26 ± 2 µM | 2.4 ± 0.3 µM | > 100 µM | 5.9 ± 0.7 µM |  |  |  |  | CCNC(=O)Nc1ccc(S(=O)(=O)Oc2cnccc2C)cc1.Cl [Compound 32, 4-Methylpyridin-3-yl 4-(3-ethylureido)benzenesulfonate hydrochloride] | 35 ± 4 µM | 
9 | 42 ± 2 µM |  | 0.079 ± 0.009 mg/mL |  |  |  |  |  | 10 ± 0.3 µM | 22 ± 2 µM | 37 ± 7 µM | CCCNC(=O)Nc1ccc(S(=O)(=O)Oc2cccnc2Br)cc1.Cl [Compound 23, 2-Bromopyridin-3-yl 4-(3-propylureido)benzenesulfonate hydrochloride] |  | 45 ± 2 µM

Continued, compound first:

Row | SMILES | IC50 [1, 9] | IC50 [2, 10] | solubility at 24 h [4] | IC50 [5, 12] | IC50 [6] | IC50 [7, 13] | IC50 [8] | IC50 [1, 14] | IC50 [2, 15] | IC50 [5, 17] | IC50 [7, 18] | IC50 [3, 11] | IC50 [3, 16]
10 | O=C(NCCCl)Nc1ccc(S(=O)(=O)Oc2cnccc2I)cc1 [Compound 18, 4-Iodopyridin-3-yl 4-(3-(2-chloroethyl)ureido)benzenesulfonate] |  |  | 0.024 ± 0.002 mg/mL (≈ 49.8 µM) |  |  |  |  | 2.7 ± 0.2 µM | 1.2 ± 0.3 µM | 2.8 ± 0.4 µM | 3 ± 1 µM |  | 2.8 ± 0.3 µM
11 | CCCNC(=O)Nc1ccc(S(=O)(=O)Oc2cnccc2I)cc1 [Compound 16, 4-Iodopyridin-3-yl 4-(3-propylureido)benzenesulfonate] | 6.9 ± 0.5 µM |  | 0.053 ± 0.006 mg/mL (≈ 115 µM) | 5 ± 1 µM | 1.3 ± 0.3 µM | 18 ± 4 µM |  |  | 1.5 ± 0.4 µM |  |  | 9.7 ± 0.9 µM | 
12 | CC(C)c1ncccc1OS(=O)(=O)c1ccc(NC(=O)NCCCl)cc1 [Compound 11, 2-Isopropylpyridin-3-yl 4-(3-(2-chloroethyl)ureido)benzenesulfonate] |  |  | 0.041 ± 0.003 mg/mL (≈ 103 µM) |  |  | 27 ± 6 µM |  | 14 ± 1 µM | 2.3 ± 0.9 µM | 17 ± 1 µM |  | 20 ± 1 µM | 
13 | CCCNC(=O)Nc1ccc(S(=O)(=O)Oc2cccnc2C(C)C)cc1 [Compound 7, 2-Isopropylpyridin-3-yl 4-(3-propylureido)benzenesulfonate] |  |  | 0.007 ± 0.001 mg/mL (≈ 18.5 µM) |  |  | 24 ± 4 µM |  | 14 ± 1 µM | 2.6 ± 0.6 µM | 17 ± 1 µM |  |  | 22 ± 2 µM
14 | O=C(NCCCl)Nc1ccc(S(=O)(=O)Oc2cccnc2Br)cc1 [Compound 9, 2-Bromopyridin-3-yl 4-(3-(2-chloroethyl)ureido)benzenesulfonate] |  | 1.2 ± 0.5 µM | 0.056 ± 0.002 mg/mL (≈ 129 µM) |  |  | 12 ± 1 µM |  | 17 ± 1 µM |  | 16 ± 1 µM |  |  | 23 ± 1 µM
15 | CCNC(=O)Nc1ccc(S(=O)(=O)Oc2cccnc2C)cc1.Cl [Compound 22, 2-Methylpyridin-3-yl 4-(3-ethylureido)benzenesulfonate hydrochloride] |  |  | 0.152 ± 0.004 mg/mL | 51 ± 5 µM |  |  | 26 ± 2 µM | > 100 µM | 5 ± 2 µM |  | 60 ± 20 µM |  | > 100 µM
16 | CCCNC(=O)Nc1ccc(S(=O)(=O)Oc2cnccc2C)cc1 [Compound 17, 4-Methylpyridin-3-yl 4-(3-propylureido)benzenesulfonate] | 12 ± 1 µM |  | 0.052 ± 0.002 mg/mL (≈ 149 µM) | 12 ± 1 µM | 4 ± 0.6 µM | 43 ± 7 µM | 7.5 ± 0.5 µM |  | 7.3 ± 0.8 µM |  |  | 24 ± 1 µM | 
17 | CCCNC(=O)Nc1ccc(S(=O)(=O)Oc2cccnc2I)cc1 [Compound 6, 2-Iodopyridin-3-yl 4-(3-propylureido)benzenesulfonate] | 16 ± 1 µM | 2.4 ± 0.1 µM | 0.023 ± 0.002 mg/mL (≈ 49.9 µM) | 13 ± 1 µM | 2.2 ± 0.3 µM | 24 ± 5 µM | 2 ± 0.2 µM |  |  |  |  | 17 ± 1 µM | 
18 | CCCNC(=O)Nc1ccc(S(=O)(=O)Oc2cccnc2Br)cc1 [Compound 5, 2-Bromopyridin-3-yl 4-(3-propylureido)benzenesulfonate] | 17 ± 1 µM | 5.9 ± 0.5 µM | 0.008 ± 0.001 mg/mL (≈ 19.3 µM) | 13 ± 1 µM | 2.6 ± 0.1 µM | 19 ± 2 µM | 3.3 ± 0.2 µM |  |  |  |  | 24 ± 2 µM | 
19 | CCNC(=O)Nc1ccc(S(=O)(=O)Oc2cnccc2Br)cc1 [Compound 12, 4-Bromopyridin-3-yl 4-(3-ethylureido)benzenesulfonate] |  |  | 0.064 ± 0.001 mg/mL (≈ 160 µM) |  |  |  |  | 25 ± 1 µM | 4 ± 0.6 µM | 32 ± 4 µM | > 50 µM | 21 ± 1 µM | 
20 | CCNC(=O)Nc1ccc(S(=O)(=O)Oc2cccnc2Br)cc1.Cl [Compound 19, 2-Bromopyridin-3-yl 4-(3-ethylureido)benzenesulfonate hydrochloride] | 26 ± 2 µM |  | 0.173 ± 0.002 mg/mL |  |  | > 100 µM |  |  | 7 ± 3 µM | 28 ± 2 µM |  | 27 ± 2 µM | 
21 | CCCNC(=O)Nc1ccc(S(=O)(=O)Oc2cccnc2C)cc1 [Compound 8, 2-Methylpyridin-3-yl 4-(3-propylureido)benzenesulfonate] |  |  | 0.044 ± 0.001 mg/mL (≈ 126 µM) |  |  | 35 ± 7 µM | 5.1 ± 0.5 µM | 70 ± 8 µM | 3.5 ± 0.9 µM | 19 ± 2 µM |  |  | 69 ± 3 µM
22 | CCNC(=O)Nc1ccc(S(=O)(=O)Oc2cnccc2I)cc1 [Compound 13, 4-Iodopyridin-3-yl 4-(3-ethylureido)benzenesulfonate] |  |  | 0.063 ± 0.001 mg/mL (≈ 141 µM) |  |  |  |  | 12 ± 1 µM | 1.8 ± 0.5 µM | 15 ± 2 µM | 25 ± 7 µM |  | 9 ± 1 µM
23 | CCNC(=O)Nc1ccc(S(=O)(=O)Oc2cnccc2C)cc1 [Compound 14, 4-Methylpyridin-3-yl 4-(3-ethylureido)benzenesulfonate] |  | 6 ± 2 µM | 0.049 ± 0.004 mg/mL (≈ 146 µM) |  |  |  |  | 16 ± 1 µM |  | 31 ± 3 µM | > 100 µM |  | 31 ± 3 µM
24 | CCCNC(=O)Nc1ccc(S(=O)(=O)Oc2cnccc2Br)cc1 [Compound 15, 4-Bromopyridin-3-yl 4-(3-propylureido)benzenesulfonate] |  |  | 0.035 ± 0.003 mg/mL (≈ 84.5 µM) |  |  |  | 4.1 ± 0.3 µM | 19 ± 1 µM | 6 ± 1 µM | 12 ± 1 µM | 21 ± 5 µM |  | 28 ± 2 µM
25 | O=C(NCCCl)Nc1ccc(S(=O)(=O)Oc2cccnc2I)cc1 [Compound 10, 2-Iodopyridin-3-yl 4-(3-(2-chloroethyl)ureido)benzenesulfonate] | 9 ± 1 µM |  | 0.0044 ± 0.0001 mg/mL (≈ 9.13 µM) | 5 ± 1 µM |  | 6.9 ± 0.3 µM |  |  | 1 ± 0.1 µM |  |  |  | 9 ± 1 µM
